# Read-outs that look alike come from different tables or passages of the source.
# Columns and labels:
# [1] = target: T1, GST M1a-1a (Homo sapiens, UniProt P09488); details: cited from earlier work
# T1 sequence (P09488 1-218): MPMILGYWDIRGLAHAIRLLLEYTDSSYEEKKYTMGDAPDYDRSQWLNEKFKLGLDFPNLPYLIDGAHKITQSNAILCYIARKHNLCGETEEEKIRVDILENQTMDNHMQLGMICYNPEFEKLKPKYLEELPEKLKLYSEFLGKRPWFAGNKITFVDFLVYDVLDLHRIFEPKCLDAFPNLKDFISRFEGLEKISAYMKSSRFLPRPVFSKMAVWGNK
# [2] = test system: human ovarian cancer cell line OVCAR-3; assay: OVCAR-3 cell viability, Wst-1 assay (Example 1); format: cell-based; details: OVCAR-3, Wst-1, approximately three cell doublings
# Protocol: (§1) Assay methods. All assays were conducted in triplicate wells, with solvent control. The extent of cell growth was expressed as a percentage of the signal from the solvent control wells. The means were computed and graphed, with the standard deviations shown as error bars.
# The diluted compounds or solvent controls were then added at 50 μL/well. […] The results were further analyzed using the Combination Index (CI) method with the “CalcuSyn” program from Biosoft.
# [3] = test system: human colon cancer cell line DLD-1; assay: cells; format: cell-based; details: DLD-1, read-out: IC20 (concentration of TLK286 used in FIG. 2)
# Protocol: as §1
# The human colon cancer cell line DLD-1 was seeded at 4×10^4 cells/mL, 150 μL/well, and allowed to attach to the wells overnight. The diluted compounds or solvent controls were then added at 50 μL/well. Incubation with TLK286 alone and in combination with oxaliplatin was continued for approximately four cell doublings, and cell viability was determined using the CellTiter-Glo assay (Promega Corporation, Madison, Wis., U.S.A.), used in accordance with the assay kit directions. […] The results were further analyzed using the Combination Index (CI) method with the “CalcuSyn” program from Biosoft.
# [4] = test system: human breast cancer cell line MCF-7; assay: MCF-7 cell proliferation, BrdU chemiluminescence assay (Example 4); format: cell-based
# Protocol: as §1
# MCF-7 was seeded at 4×10^4 cells/mL, 150 μL/well, and allowed to attach to the wells for 4-5 hours. The diluted compounds or solvent controls were then added at 50 μL/well. Incubation with TLK286 alone and in combination with docetaxel was continued for one doubling, and cell proliferation was determined using the BrdU (chemiluminescence) assay, by labeling with BrdU (Roche Diagnostics Corporation, Indianapolis, Ind., U.S.A.) overnight. The assay is based on the incorporation of BrdU, an analogue of thymidine, during DNA synthesis. The incorporation of BrdU, which reflects the extent of cell proliferation, was then quantitated with an ELISA kit (also from Roche Diagnostics Corporation). The results were analyzed according to the Combination Index method.
# [5] = test system: human lung cancer cell line A-549; assay: cells; format: cell-based; details: A549, read-out: IC50 (concentration of TLK286 used in FIG. 5)
# [6] = test system: human non-Hodgkin's B cell lymphoma cell line RL; assay: RL cell growth, method similar to Example 2 (Example 8); format: cell-based; details: RL cells
# [7] = test system: human ovarian cancer cell line OVCAR-3
# Protocol: The results were analyzed according to the Combination Index method with the “CalcuSyn” program from Biosoft.
# [8] = test system: ovarian, breast, non-small cell lung, and colorectal cancers
# [9] = test system: M6709 human colon carcinoma cell line selected for resistance to doxorubicin; details: doxorubicin-resistant line overexpressing GST P1-1; Morgan et al. 1998; cited from earlier work
# [10] = test system: MCF-7 human breast carcinoma cell line selected for resistance to cyclophosphamide; details: cyclophosphamide-resistant line overexpressing GST P1-1; Morgan et al. 1998; cited from earlier work
# [11] = test system: murine xenografts of M7609 engineered to have high, medium, and low levels of GST P1-1; details: Morgan et al. 1998; cited from earlier work
# [12] = test system: in vitro cell culture and tumor biopsies; details: Rosario et al. 2000; cited from earlier work
# [13] = target: GST P1-1 (Homo sapiens, UniProt P09211); details: releases cytotoxic phosphorodiamidate mustard moiety; cited from earlier work
# [14] = target: T2, GST A1-1 (Homo sapiens, UniProt P08263); details: cited from earlier work
# T2 sequence (P08263 2-222 limits assumed): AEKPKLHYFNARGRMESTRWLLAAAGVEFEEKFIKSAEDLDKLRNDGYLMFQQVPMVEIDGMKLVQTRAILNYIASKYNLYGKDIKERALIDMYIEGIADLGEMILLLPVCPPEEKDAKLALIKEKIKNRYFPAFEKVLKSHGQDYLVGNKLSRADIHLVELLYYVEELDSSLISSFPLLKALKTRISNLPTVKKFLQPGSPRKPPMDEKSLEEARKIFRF
# [15] = test system: human breast cancer cell line MX-1; assay: MX-1 cell growth, method similar to Example 2 (Example 9); format: cell-based; details: MX-1 cells
# Chain of GST P1-1 (P09211 2-210 limits assumed): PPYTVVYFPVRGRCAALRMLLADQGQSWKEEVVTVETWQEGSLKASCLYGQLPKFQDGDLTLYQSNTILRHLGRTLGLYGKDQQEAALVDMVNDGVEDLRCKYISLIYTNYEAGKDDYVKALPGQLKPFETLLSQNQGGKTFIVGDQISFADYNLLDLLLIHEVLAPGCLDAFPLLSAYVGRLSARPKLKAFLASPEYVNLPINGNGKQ
smiles,measurement,setting,value
"N[C@@H](CCC(=O)N[C@@H](CS(=O)(=O)CCOP(=O)(N(CCCl)CCCl)N(CCCl)CCCl)C(=O)NCC(=O)O)C(=O)O [TLK231, L-γ-glutamyl-3-[[2-[[bis[bis(2-chloroethyl)amino]phosphinyl]oxy]ethyl]sulfonyl]-L-alanyl-glycine]",activation by GST isoenzyme,[1],activated
"N[C@@H](CCC(=O)N[C@@H](CS(=O)(=O)CCOP(=O)(N(CCCl)CCCl)N(CCCl)CCCl)C(=O)N[C@@H](C(=O)O)c1ccccc1)C(=O)O [TLK286, L-γ-glutamyl-3-[[2-[[bis[bis (2-chloroethyl)amino]phosphinyl]oxy]ethyl]sulfonyl]-L-alanyl-2-phenyl-(2R)-glycine]",IC30 (concentration of TLK286 used in FIG. 1),[2],~3.1 µM
same,IC20,[3],~9 µM
same,IC40 (concentration of TLK286 used in FIG. 4),"[4]; MCF-7, BrdU incorporation, one doubling",~3.3 µM
same,IC50,[5],~4 µM
same,IC25 (concentration of TLK286 used in FIG. 8),[6],~4.6 µM
same,IC10 (concentration of TLK286 used in FIG. 3),[7],~1.7 µM
same,single agent clinical activity,[8]; colorectal and breast cancer,single agent antitumor activity
same,single agent clinical activity,[8]; patients with non-small cell lung cancer and ovarian cancer,significant single agent antitumor activity and improvement in survival
same,potency in resistant line over parental cell line,[9],more potent
same,potency in resistant line over parental cell line,[10],more potent
same,potency in xenografts versus GST P1-1 level,[11],positively correlated with the level of GST P1-1
same,"cross-resistance to platinum, paclitaxel, doxorubicin and gemcitabine",[12],non-cross-resistant
same,activation by GST isoenzyme,[13],activated
same,activation by GST isoenzyme,[14],activated
"N[C@@H](CCC(=O)N[C@@H](Cc1cccc(S(=O)(=O)CCOP(=O)(N(CCCl)CCCl)N(CCCl)CCCl)c1)C(=O)NCC(=O)O)C(=O)O [TLK296, L-γ-glutamyl-3-[[2-[[bis[bis(2-chloroethyl)amino]phosphinyl]oxy]ethyl]sulfonyl]-L-phenylalanyl-glycine]",activation by GST isoenzyme,[13],activated
"C[C@@](NC(=O)[C@H](CS(=O)(=O)CCOP(=O)(N(CCCl)CCCl)N(CCCl)CCCl)NC(=O)CC[C@H](N)C(=O)O)(C(=O)O)c1ccccc1 [TLK303, L-γ-glutamyl-3-[[2-[[bis[bis(2-choroethyl)-amino]phosphinyl]oxy]ethyl]sulfonyl]-L-alanyl-2-phenyl-(2S) -alanine]",activation by GST isoenzyme,[14],activated
"CC(=O)O[C@@]12CO[C@@H]1C[C@H](O)[C@@]1(C)C(=O)[C@H](O)C3=C(C)[C@@H](OC(=O)[C@H](O)[C@@H](NC(=O)OC(C)(C)C)c4ccccc4)C[C@@](O)([C@@H](OC(=O)c4ccccc4)[C@H]21)C3(C)C [docetaxel, reference compound]",inhibition of proliferation at top of concentration range,"[4]; MCF-7, BrdU, docetaxel about 0.8 to 3 nM, from nearly no effect",~60%
COc1cc2ncnc(Nc3ccc(F)c(Cl)c3)c2cc1OCCCN1CCOCC1 [gefitinib],IC30 (concentration of gefitinib used in FIG. 9),[15],~2.0 µM

# From patent publication US20080159980A1, “Combination cancer therapy with a GST-activated anticancer compound and another anticancer therapy” (Telik, Inc., priority 2002, published 2008)
